Measured values reported in ChEMBL document CHEMBL1149728, “11-oxoaerothionin: a cytotoxic antitumor bromotyrosine-derived alkaloid from the Caribbean marine sponge Aplysina lacunosa” (J Nat Prod, 1992).
Converted amounts (≈) assume the structure as drawn.

Key:
[1] = tested on: MCF7; test: Cytotoxicity against human MCF7 cells; type: functional, cell-based
[2] = tested on: Pseudomonas aeruginosa; test: Antimicrobial activity against Pseudomonas aeruginosa; type: functional
[3] = tested on: HCT-116; test: Cytotoxicity against human HCT116 cells; type: functional, cell-based
[4] = tested on: Staphylococcus aureus; test: Antimicrobial activity against Staphylococcus aureus; type: functional
[5] = tested on: SK-MEL-5; test: Cytotoxicity against human SK-MEL-5 cells; type: functional, cell-based
[6] = tested on: CCRF-CEM; test: Cytotoxicity against human CCRF-CEM cells; type: functional, cell-based
[7] = tested on: Escherichia coli; test: Antimicrobial activity against Escherichia coli; type: functional

MIC [2]: 30 µg/mL (≈ 36.1 µM)
MIC [4]: 30 µg/mL (≈ 36.1 µM)
MIC [7]: 10 µg/mL (≈ 12 µM)
SMILES: COC1=C(Br)[C@@H](O)[C@]2(C=C1Br)CC(C(=O)NCCC(=O)CNC(=O)C1=NO[C@]3(C=C(Br)C(OC)=C(Br)[C@@H]3O)C1)=NO2
IC50 [1]: 20 µg/mL (≈ 24 µM)
IC50 [3]: 10 µg/mL (≈ 12 µM)
IC50 [5]: 10 µg/mL (≈ 12 µM)
IC50 [6]: 3.5 µg/mL (≈ 4.21 µM)
